# US10000471B2, “Pyrazole P38 map kinase inhibitors” (Respivert Limited, priority 2010, dated 2018)
# How the values were obtained:
# [1] = test system: TNFα release in THP-1 cells; experiment: LPS-induced TNFα release in THP-1 cells; format: cell-based, human; settings: Homo sapiens
# Method in brief: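 Human monocytic THP-1 cells stimulated with 3 μg/mL E. coli LPS for 4 hr; supernatant TNFα measured by sandwich ELISA. Inhibition at each concentration versus vehicle control, IC50 from concentration-response curve.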
# [2] = test system: TNFα release in d-U937 cells; experiment: LPS-induced TNFα release in d-U937 cells; format: cell-based, human; settings: Homo sapiens, dU937, relative to 10 μg/mL BIRB796, read-out: LPS/TNFα REC50 d-U937
# Method in brief: (§1)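 PMA-differentiated (100 ng/ml, 48–72 hr) U937 macrophage-type cells pre-incubated 2 hr with compound, then stimulated 4 hr with 0.1 μg/mL E. coli O111:B4 LPS; supernatant TNFα and IL-8 measured by sandwich ELISA. TNFα inhibition expressed relative to 10 μg/mL BIRB796, giving REC50; IL-8 inhibition versus vehicle, giving IC50.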
# [3] = test system: IL-8 release in d-U937 cells; experiment: LPS-induced IL-8 release in d-U937 cells; format: cell-based, human; settings: Homo sapiens, dU937
# Method in brief: as §1
# [4] = test system: ICAM-1 induction in BEAS2B cells; experiment: Poly I:C-induced ICAM-1 induction in BEAS2B cells; format: cell-based, human; settings: Homo sapiens, BEAS-2B, read-out: PolyIC/ICAM1 IC50 BEAS2B
# Method in brief: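 Human bronchial epithelial BEAS2B cells were pre-incubated with compound for 2 hr, then transfected with 1 μg/mL poly I:C. After 18 hr, surface ICAM-1 was measured by cell-based ELISA (OD450-655) and normalized to crystal violet cell counts (OD595). IC50 came from inhibition versus vehicle across the concentration-response curve.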
# [5] = test system: Differentiated U937 cells; experiment: Cell viability MTT assay; format: cell-based, human; settings: negative = apparent increase in viability; for MTT Assay (Viability) 4 h d-U937, percentage loss of cell viability: 4 hr in 5% FCS; for MTT Assay (Viability) 24 h d-U937, percentage loss of cell viability: 24 h in 10% FCS
# Method in brief: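 Differentiated U937 cells pre-incubated with compound either 4 hr in 5% FCS or 24 h in 10% FCS, then 1 hr MTT. Formazan dissolved in DMSO, absorbance at 550 nm. Percentage viability loss relative to 0.5% DMSO vehicle; apparent increases appear as negative percentages.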
# A/J mice = experiment: Cigarette smoke model; format: in vivo; settings: for inhibition of both macrophage and neutrophil accumulation into the BALF: animals previously exposed to cigarette smoke; for Cell numbers in BAL (% Inhibition), Macrophages / Cell numbers in BAL (% Inhibition), Neutrophils / Cell numbers in BAL, Macrophages / Cell numbers in BAL, Neutrophils: Table 8
# Procedure: A/J mice (males, 5 weeks old) were exposed to cigarette smoke (4% cigarette smoke, diluted with air) for 30 min/day for 11 days using a Tobacco Smoke Inhalation Experiment System for small animals (Model SIS-CS; Sibata Scientific Technology, Tokyo, Japan). Test substances were administered intra-nasally (35 μL of solution in 50% DMSO/PBS) twice daily for 3 days after the final cigarette smoke exposure. At 12 hr after the last dosing, each of the animals was anesthetized, the trachea cannulated and bronchoalveolar lavage fluid (BALF) was collected. The numbers of alveolar macrophages and neutrophils were determined by FACS analysis (EPICS® ALTRA II, Beckman Coulter, Inc., Fullerton, Calif., USA) using anti-mouse MOMA2 antibody (macrophage) or anti-mouse 7/4 antibody (neutrophil).
# The data for cell numbers are shown as the mean±SEM.
# [6] = Cigarette smoke + 0.064 μg/mL, intra-nasal twice daily 3 days
# [7] = Table 7, Cigarette smoke + 8.0 μg/mL
# [8] = Table 7, Cigarette smoke + 40 μg/mL
# [9] = Table 7, Cigarette smoke + 200 μg/mL
structure (smiles),measurement,setting,value
"CNC(=O)Nc1cc(Oc2ccc(NC(=O)Nc3cc(C(C)(C)C)nn3-c3ccc(OC)cc3)c(Cl)c2Cl)ccn1 [Example 9, N-Methyl-N′-4-(4-(3-(3-tert-butyl-1-p-anisyl-1H-pyrazol-5-yl)ureido)-2,3-dichlorophen-1-yloxy)pyridin-2-ylurea]",IC50,[1],1000 pM
same,EC50,[2],200 pM
same,IC50,[3],800 pM
same,IC50,[4],300 pM
same,"MTT Assay (Viability) 4 h d-U937, percentage loss of cell viability",[5],−26.8%
same,"MTT Assay (Viability) 24 h d-U937, percentage loss of cell viability",[5],65.3%
same,"Cell numbers in BAL (% Inhibition), Macrophage",A/J mice; [6],19%
same,"Cell numbers in BAL (% Inhibition), Neutrophil",A/J mice; [6],3%
same,"Cell numbers in BAL, Macrophage",A/J mice; [6],16.2 ± 1.7 × 10^4/mL
same,"Cell numbers in BAL, Neutrophil",A/J mice; [6],17.7 ± 2.5 × 10^4/mL
same,"Cell numbers in BAL (% Inhibition), Macrophage",A/J mice; Cigarette smoke + 0.32 μg/mL,17%
same,"Cell numbers in BAL (% Inhibition), Neutrophil",A/J mice; Cigarette smoke + 0.32 μg/mL,16%
same,"Cell numbers in BAL, Macrophage",A/J mice; Cigarette smoke + 0.32 μg/mL,16.5 ± 2.4 × 10^4/mL
same,"Cell numbers in BAL, Neutrophil",A/J mice; Cigarette smoke + 0.32 μg/mL,15.5 ± 0.47 × 10^4/mL
same,"Cell numbers in BAL (% Inhibition), Macrophage",A/J mice; Cigarette smoke + 1.6 μg/mL,19%
same,"Cell numbers in BAL (% Inhibition), Neutrophil",A/J mice; Cigarette smoke + 1.6 μg/mL,21%
same,"Cell numbers in BAL, Macrophage",A/J mice; Cigarette smoke + 1.6 μg/mL,16.2 ± 1.3 × 10^4/mL
same,"Cell numbers in BAL, Neutrophil",A/J mice; Cigarette smoke + 1.6 μg/mL,14.7 ± 1.6 × 10^4/mL
same,"Cell numbers in BAL (% Inhibition), Macrophage",A/J mice; [7],39%
same,"Cell numbers in BAL (% Inhibition), Neutrophil",A/J mice; [7],29%
same,"Cell numbers in BAL, Macrophage",A/J mice; [7],13.1 ± 1.2 × 10^4/mL
same,"Cell numbers in BAL, Neutrophil",A/J mice; [7],13.4 ± 1.4 × 10^4/mL
same,"Cell numbers in BAL (% Inhibition), Macrophage",A/J mice; [8],61%
same,"Cell numbers in BAL (% Inhibition), Neutrophil",A/J mice; [8],42%
same,"Cell numbers in BAL, Macrophage",A/J mice; [8],9.9 ± 1.6 × 10^4/mL
same,"Cell numbers in BAL, Neutrophil",A/J mice; [8],11.2 ± 2.1 × 10^4/mL
same,"Cell numbers in BAL (% Inhibition), Macrophage",A/J mice; [9],85%
same,"Cell numbers in BAL (% Inhibition), Neutrophil",A/J mice; [9],72%
same,"Cell numbers in BAL, Macrophage",A/J mice; [9],6.1 ± 0.93 × 10^4/mL
same,"Cell numbers in BAL, Neutrophil",A/J mice; [9],6.3 ± 0.79 × 10^4/mL
same,inhibition of both macrophage and neutrophil accumulation into the BALF,A/J mice,dose-dependent inhibition
"COc1ccc(-n2nc(C(C)(C)C)cc2NC(=O)Nc2ccc(Oc3ccnc(NC(=O)N4CCCC4)c3)c(Cl)c2Cl)cc1 [Example 76, N-(4-(4-(3-(3-(tert-butyl)-1-(4-methoxyphenyl)-1H-pyrazol-5-yl)ureido)-2,3-dichlorophenoxy)pyridin-2-yl)pyrrolidine-1-carboxamide]",IC50,[1],600 pM
same,EC50,[2],900 pM
same,IC50,[3],800 pM
same,IC50,[4],300 pM
same,"MTT Assay (Viability) 4 h d-U937, percentage loss of cell viability",[5],−25.5%
same,"MTT Assay (Viability) 24 h d-U937, percentage loss of cell viability",[5],27.2%
same,"Cell numbers in BAL (% Inhibition), Macrophages",A/J mice; Cigarette smoke + 8.0 μg/mL,57%
same,"Cell numbers in BAL (% Inhibition), Neutrophils",A/J mice; Cigarette smoke + 8.0 μg/mL,52%
same,"Cell numbers in BAL, Macrophages",A/J mice; Cigarette smoke + 8.0 μg/mL,8.5 ± 0.35 × 10^4/mL
same,"Cell numbers in BAL, Neutrophils",A/J mice; Cigarette smoke + 8.0 μg/mL,9.6 ± 0.48 × 10^4/mL
same,"Cell numbers in BAL (% Inhibition), Macrophages",A/J mice; Cigarette smoke + 40 μg/mL,84%
same,"Cell numbers in BAL (% Inhibition), Neutrophils",A/J mice; Cigarette smoke + 40 μg/mL,66%
same,"Cell numbers in BAL, Macrophages",A/J mice; Cigarette smoke + 40 μg/mL,5.3 ± 0.36 × 10^4/mL
same,"Cell numbers in BAL, Neutrophils",A/J mice; Cigarette smoke + 40 μg/mL,7.4 ± 0.76 × 10^4/mL
same,"Cell numbers in BAL (% Inhibition), Macrophages",A/J mice; Cigarette smoke + 200 μg/mL,97%
same,"Cell numbers in BAL (% Inhibition), Neutrophils",A/J mice; Cigarette smoke + 200 μg/mL,86%
same,"Cell numbers in BAL, Macrophages",A/J mice; Cigarette smoke + 200 μg/mL,3.6 ± 0.39 × 10^4/mL
same,"Cell numbers in BAL, Neutrophils",A/J mice; Cigarette smoke + 200 μg/mL,4.0 ± 0.49 × 10^4/mL
same,inhibition of both macrophage and neutrophil accumulation into the BALF,A/J mice,dose-dependent inhibition
